In ChEMBL document CHEMBL5104103 (J Med Chem, 2022):
Activity calls are given as the source filed them. The rule behind the calls is not given here.

Tests used:
[1] = Toxicity in male Beagle dog assessed as drug tolerance up to 400 mg/kg/day qd for 12 weeks; type: organism-based, Canis lupus familiaris; details: in vivo, 2016 h
[2] = biological target: T1, Tyrosine-protein kinase ITK/TSK (Homo sapiens) (UniProt Q08881); test: Displacement of competitive tracer from ITK (unknown origin) assessed as target occupancy at […] preincubated for 15 mins measured for 6 hrs relative to control; details: dose 1.5 µM
T1 sequence (whole entry): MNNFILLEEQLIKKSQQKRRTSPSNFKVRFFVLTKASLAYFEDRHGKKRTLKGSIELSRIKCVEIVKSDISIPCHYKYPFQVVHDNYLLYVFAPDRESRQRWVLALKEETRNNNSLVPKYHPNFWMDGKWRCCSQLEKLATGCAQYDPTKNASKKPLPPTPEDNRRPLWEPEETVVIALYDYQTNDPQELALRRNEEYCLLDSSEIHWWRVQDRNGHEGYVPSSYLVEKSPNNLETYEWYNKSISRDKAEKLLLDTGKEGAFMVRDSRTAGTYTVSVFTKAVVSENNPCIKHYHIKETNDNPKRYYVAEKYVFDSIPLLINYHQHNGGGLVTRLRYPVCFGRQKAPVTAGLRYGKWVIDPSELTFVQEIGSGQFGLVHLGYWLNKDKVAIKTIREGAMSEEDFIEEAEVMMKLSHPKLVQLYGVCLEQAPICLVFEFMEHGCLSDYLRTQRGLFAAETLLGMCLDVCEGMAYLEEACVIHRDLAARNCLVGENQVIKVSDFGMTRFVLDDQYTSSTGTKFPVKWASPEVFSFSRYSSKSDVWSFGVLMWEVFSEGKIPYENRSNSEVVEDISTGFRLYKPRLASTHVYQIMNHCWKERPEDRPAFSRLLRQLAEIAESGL

[3] = Toxicity in male Beagle dog assessed as NOAEL; parameters: species or system Canis lupus familiaris; details: in vivo
[4] = Drug concentration in plasma of collagen-induced arthritis Lewis rat model 3 mg/kg/day, po measured after 6 hrs post-collection of plasma; type: ADME, organism-based
Rattus norvegicus = test: Antiarthritic activity in collagen-induced arthritis Lewis rat model assessed as inhibition of ankle diameter administered orally daily for 10 days; type: functional, organism-based; details: dose 3-30 mg/kg/day, route po, time 10.0 day, DDE = dose-dependent effect
[5] = biological target: D(2) dopamine receptor (Homo sapiens) (UniProt P14416); test: Displacement of [3H]methyl-spiperone from recombinant human dopamine receptor D2S at 10 uM incubated for 60 mins by radiometric scintillation assay relative to control
Chain of D(2) dopamine receptor (Homo sapiens) (P14416 whole entry): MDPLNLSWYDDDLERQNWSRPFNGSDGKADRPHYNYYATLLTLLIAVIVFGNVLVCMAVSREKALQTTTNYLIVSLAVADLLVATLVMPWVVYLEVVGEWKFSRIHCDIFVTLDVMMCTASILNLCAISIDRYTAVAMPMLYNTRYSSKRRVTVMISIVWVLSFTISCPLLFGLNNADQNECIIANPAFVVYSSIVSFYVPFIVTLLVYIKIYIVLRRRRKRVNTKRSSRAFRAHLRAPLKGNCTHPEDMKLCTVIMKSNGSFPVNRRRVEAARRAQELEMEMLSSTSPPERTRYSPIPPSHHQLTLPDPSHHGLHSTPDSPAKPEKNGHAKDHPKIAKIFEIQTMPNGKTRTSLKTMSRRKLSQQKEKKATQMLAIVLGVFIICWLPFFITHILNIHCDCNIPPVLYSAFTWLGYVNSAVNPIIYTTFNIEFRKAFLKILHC

[6] = Toxicity in female Beagle dog assessed as reduction in activity up to 400 mg/kg/day qd for 12 weeks; type: organism-based, Canis lupus familiaris; details: in vivo, 2016 h
[7] = Inhibition of EGF-stimulated AP-1 activation in human ME-180 cells by EGFR-based reporter assay; type: cell-based
[8] = Drug concentration in plasma of collagen-induced arthritis Lewis rat model 30 mg/kg/day, po measured after 12 hrs post-collection of plasma; type: ADME, organism-based
Canis lupus familiaris = test: Effect on canine pemphigus foliaceous dog model assessed as reduction in lesion at 8 to 21 mg/kg measured for 2 weeks; type: functional, organism-based; details: dose lower 8.0 mg/kg, dose upper […]
[9] = biological target: Tyrosine-protein kinase Blk (Homo sapiens, UniProt P51451); test: Displacement of competitive tracer from BLK (unknown origin) assessed as target occupancy at […] preincubated for 15 mins measured for 6 hrs relative to control; details: dose 1.5 µM
Chain of Tyrosine-protein kinase Blk (P51451 2-505 limits assumed): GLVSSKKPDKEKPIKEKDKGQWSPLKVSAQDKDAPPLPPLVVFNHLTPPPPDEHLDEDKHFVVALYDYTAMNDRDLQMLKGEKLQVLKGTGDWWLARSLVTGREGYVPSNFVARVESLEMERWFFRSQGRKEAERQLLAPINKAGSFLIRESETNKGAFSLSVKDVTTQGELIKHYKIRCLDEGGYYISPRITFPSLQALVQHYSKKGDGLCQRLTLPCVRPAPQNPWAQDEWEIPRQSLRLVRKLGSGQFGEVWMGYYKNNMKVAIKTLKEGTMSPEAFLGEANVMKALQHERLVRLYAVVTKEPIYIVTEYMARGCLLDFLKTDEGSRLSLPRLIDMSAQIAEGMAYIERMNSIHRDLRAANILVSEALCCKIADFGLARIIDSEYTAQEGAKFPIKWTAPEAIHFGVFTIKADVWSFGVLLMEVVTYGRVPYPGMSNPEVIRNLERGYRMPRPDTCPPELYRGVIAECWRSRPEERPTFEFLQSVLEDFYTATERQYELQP

[10] = biological target: T2, Tyrosine-protein kinase TXK (Homo sapiens) (UniProt P42681); test: Displacement of competitive tracer from RLK (unknown origin) assessed as target occupancy at […] preincubated for 15 mins measured for 6 hrs relative to control; details: dose 1.5 µM
T2 sequence (whole entry): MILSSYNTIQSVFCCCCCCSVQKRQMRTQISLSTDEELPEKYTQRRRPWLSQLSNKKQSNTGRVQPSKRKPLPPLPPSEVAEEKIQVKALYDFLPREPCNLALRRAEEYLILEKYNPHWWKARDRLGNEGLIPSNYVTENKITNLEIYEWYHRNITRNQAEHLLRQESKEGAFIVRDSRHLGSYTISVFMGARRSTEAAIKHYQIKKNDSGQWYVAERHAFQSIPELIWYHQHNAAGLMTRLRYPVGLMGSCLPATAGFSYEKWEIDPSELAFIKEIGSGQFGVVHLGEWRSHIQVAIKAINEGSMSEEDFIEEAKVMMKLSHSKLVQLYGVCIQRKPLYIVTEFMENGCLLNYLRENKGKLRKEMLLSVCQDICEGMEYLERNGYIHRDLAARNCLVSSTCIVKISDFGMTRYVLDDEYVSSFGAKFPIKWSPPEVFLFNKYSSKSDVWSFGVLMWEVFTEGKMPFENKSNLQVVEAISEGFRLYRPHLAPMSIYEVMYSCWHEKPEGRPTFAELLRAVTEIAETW

[11] = Drug concentration in plasma of collagen-induced arthritis Lewis rat model 30 mg/kg/day, po measured after 6 hrs post-collection of plasma; type: ADME, organism-based
[12] = Toxicity in female Beagle dog assessed as weight loss up to 400 mg/kg/day qd for 12 weeks; type: organism-based, Canis lupus familiaris; details: in vivo, 2016 h
[13] = biological target: T3, Cytoplasmic tyrosine-protein kinase BMX (Homo sapiens) (UniProt P51813); test: Displacement of competitive tracer from BMX (unknown origin) assessed as target occupancy at […] preincubated for 15 mins measured for 6 hrs relative to control; details: dose 1.5 µM
T3 sequence (whole entry): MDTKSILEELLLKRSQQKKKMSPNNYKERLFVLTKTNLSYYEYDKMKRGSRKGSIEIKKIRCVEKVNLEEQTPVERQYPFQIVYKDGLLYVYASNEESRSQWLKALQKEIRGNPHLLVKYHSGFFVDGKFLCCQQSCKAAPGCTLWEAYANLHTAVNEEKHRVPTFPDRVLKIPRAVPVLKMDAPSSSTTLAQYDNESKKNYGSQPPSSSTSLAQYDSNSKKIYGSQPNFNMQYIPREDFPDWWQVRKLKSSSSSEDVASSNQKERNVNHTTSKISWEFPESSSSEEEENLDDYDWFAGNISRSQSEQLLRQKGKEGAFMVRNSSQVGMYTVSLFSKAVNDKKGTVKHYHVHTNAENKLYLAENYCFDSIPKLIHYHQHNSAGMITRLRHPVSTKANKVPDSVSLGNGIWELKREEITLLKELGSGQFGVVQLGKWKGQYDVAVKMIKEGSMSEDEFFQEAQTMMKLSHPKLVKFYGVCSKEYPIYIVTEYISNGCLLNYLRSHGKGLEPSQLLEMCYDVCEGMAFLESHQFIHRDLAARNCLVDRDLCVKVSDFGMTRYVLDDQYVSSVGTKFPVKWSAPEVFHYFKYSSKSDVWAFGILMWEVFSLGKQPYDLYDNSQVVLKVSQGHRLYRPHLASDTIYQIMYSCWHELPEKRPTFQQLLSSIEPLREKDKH

[14] = Clearance in rat liver S9 fraction assessed as measuring per mg protein; type: ADME, subcellular; details: read-out: CLH
[15] = Drug concentration in plasma of collagen-induced arthritis Lewis rat model 10 mg/kg/day, po measured after 12 hrs post-collection of plasma; type: ADME, organism-based
[16] = Inhibition of IL-2 production in TCR-stimulated T-cells in human whole blood; type: functional, tissue-based; details: T-cell
[17] = Toxicity in female Beagle dog assessed as NOAEL; parameters: species or system Canis lupus familiaris; details: in vivo

Activity [2]: 28%
concentration at 6 h [4]: 5.2 ng/mL
inhibition [5]: > 50%
IC50 [7]: > 5 µM
concentration at 12 h [8]: 51.8 ng/mL
Activity [9]: 44%
Activity [10]: 86%
concentration at 6 h [11]: 111 ng/mL
Activity [13]: 82%
microsomal CLint [14]: 54 µL/min/mg
concentration at 12 h [15]: 10 ng/mL
IC50 [16]: > 5 µM
SMILES: CC(C)(C)/C=C(\C#N)C(=O)N1CCC[C@@H](n2nc(-c3ccc(Oc4ccccc4)cc3F)c3c(N)ncnc32)C1 [ATUZABRUTINIB]
Activity [1]: Non-Toxic
NOAEL [3]: 400 mg/kg
Activity (Rattus norvegicus): Dde
Activity [6]: Toxic
Activity (Canis lupus familiaris): Active
Activity [12]: Toxic
NOAEL [17]: 120 mg/kg
